Where only a bound is given, the exact number is not on record here.

This assay addresses T1, glutathione S-transferase (GST)-linked full-length human Syk protein (Homo sapiens, UniProt P43405).
T1 construct: glutathione S-transferase (GST)-linked full-length human Syk protein; purchased Carna Biosciences; host or cells: Baculovirus expression system
The assay can be described thus: Syk enzyme assay. Format: biochemical. The note with it: 0.83 nM Syk, time-resolved fluorescence; read-out: IC50 of Syk-inhibitory activity. In outline: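 Phosphotyrosine on a biotin-peptide substrate (0.5 μM) was read by time-resolved fluorescence at 615 and 665 nm with Eu-anti-pTyr antibody and APC-streptavidin after 1 h EDTA stop.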
For `C[C@H](N)[C@H](Nc1nc(Nc2ccc(F)c(F)c2)c(C(N)=O)cc1F)C1CCC1` [Example 2-61, 6-(((1R,2S)-2-amino-1-cyclobutylpropyl)amino)-2-((3,4-difluorophenyl)amino)-5-fluoronicotinamide], the IC50 – broadly, the concentration that inhibits the measured activity by half – was in the range of 10 to 50 nM.

`COc1nn(C)c2c(F)cc(Nc3nc(N[C@H](CC(C)C)[C@H](C)N)c(F)cc3C(N)=O)cc12` [Example 2-156, 6-(((2S,3R)-2-amino-5-methylhexan-3-yl)amino)-5-fluoro-2-((7-fluoro-3-methoxy-1-methyl-1H-indazol-5-yl)amino)nicotinamide]: the IC50 is under 10 nM.

On to `CC(C)C[C@H](CN)Nc1nc(Nc2cnc(N3CCOCC3)c(F)c2)c(C(N)=O)cc1F` [Example 2-261, (R)-6-((1-amino-4-methylpentan-2-yl)amino)-5-fluoro-2-((5-fluoro-6-morpholinopyridin-3-yl)amino)nicotinamide], for which the IC50 lay within 10 to 50 nM.

As for `CC[C@@H](Nc1nc(Nc2ccc3[nH]nc(N(C)C)c3c2)c(C(N)=O)cc1F)[C@H](C)N` [Example 2-493, 6-(((2S,3R)-2-aminopentan-3-yl)amino)-2-((3-(dimethylamino)-1H-indazol-5-yl)amino)-5-fluoronicotinamide], the IC50 was under 10 nM.

Turning to `COc1cc(Nc2nc(N[C@H](c3ccccc3)[C@H](C)N)c(F)cc2C(N)=O)cc(OC)n1` [Example 2-356, 6-(((1R,2S)-2-amino-1-phenylpropyl)amino)-2-((2,6-dimethoxypyridin-4-yl)amino)-5-fluoronicotinamide], the IC50 was in the range of 10 to 50 nM.

Consider `CCn1ncc2cc(Nc3nc(N[C@H](C4CCCCC4)[C@H](C)N)c(F)cc3C(N)=O)ccc21` [Example 2-264, 6-(((1R,2S)-2-amino-1-cyclohexylpropyl)amino)-2-((1-ethyl-1H-indazol-5-yl)amino)-5-fluoronicotinamide], for which the IC50 was 10 to 50 nM.

`CN(C)c1n[nH]c2ccc(Nc3nc(N[C@@H]4CCCC[C@@H]4N)c(F)cc3C(N)=O)cc12` [Example 2-492, 6-(((1R,2S)-2-aminocyclohexyl)amino)-2-((3-(dimethylamino)-1H-indazol-5-yl)amino)-5-fluoronicotinamide]: the IC50 is under 10 nM.

Take `CC[C@@H](Nc1nc(Nc2ccc3c(c2)c(OC(F)F)nn3CCOC)c(C(N)=O)cc1F)[C@H](C)N` [Example 2-175, 6-(((2S,3R)-2-aminopentan-3-yl)amino)-2-((3-(difluoromethoxy)-1-(2-methoxyethyl)-1H-indazol-5-yl)amino)-5-fluoronicotinamide]: the IC50 is under 10 nM.

`COc1ncc(Nc2nc(N[C@@H]3CCCC[C@@H]3N)c(F)cc2C(N)=O)c2cnn(C)c12` [Example 2-407, 6-(((1R,2S)-2-aminocyclohexyl)amino)-5-fluoro-2-((7-methoxy-1-methyl-1H-pyrazolo[3,4-c]pyridin-4-yl)amino)nicotinamide]: the IC50 fell in the range of 10 to 50 nM.

For `Cc1cnn(-c2cncc(Nc3nc(N[C@H](C4CC4)[C@H](C)N)c(F)cc3C(N)=O)c2)n1` [Example 2-532, 6-(((1R,2S)-2-amino-1-cyclopropylpropyl)amino)-5-fluoro-2-((5-(4-methyl-2H-1,2,3-triazol-2-yl)pyridin-3-yl)amino)nicotinamide], the IC50 is under 10 nM.

With `CC[C@@H](Nc1nc(Nc2ccc3c(c2)c(NC)nn3C)c(C(N)=O)cc1F)[C@H](C)N` [Example 2-497, 6-(((2S,3R)-2-aminopentan-3-yl)amino)-5-fluoro-2-((1-methyl-3-(methylamino)-1H-indazol-5-yl)amino)nicotinamide], the IC50 was 50 to 100 nM.

Consider `CCC[C@@H](Nc1nc(Nc2cnc(OCCOC)c(-n3nccn3)c2)c(C(N)=O)cc1F)[C@H](C)N` [Example 2-203, 6-(((2S,3R)-2-aminohexan-3-yl)amino)-5-fluoro-2-((6-(2-methoxyethoxy)-5-(2H-1,2,3-triazol-2-yl)pyridin-3-yl)amino)nicotinamide], for which the IC50 lay in the range of 10 to 50 nM.

Take `CC[C@H](N)[C@@H](C)Nc1nc(Nc2cnc(C)c(C)c2)c(C(N)=O)cc1F` [Example 2-35, 6-(((2R,3S)-3-aminopentan-2-yl)amino)-2-((5,6-dimethylpyridin-3-yl)amino)-5-fluoronicotinamide]: the IC50 was in the range of 10 to 50 nM.

Turning to `CCOc1ncc(Nc2nc(N[C@H](C3CCC3)[C@H](C)N)c(F)cc2C(N)=O)cc1-n1ccnn1` [Example 2-167, 6-(((1R,2S)-2-amino-1-cyclobutylpropyl)amino)-2-((6-ethoxy-5-(1H-1,2,3-triazol-1-yl)pyridin-3-yl)amino)-5-fluoronicotinamide], the half-inhibitory concentration (IC50) was in the range of 10 to 50 nM.

As for `COc1ncc(Nc2nc(N[C@@H]3CCCC[C@@H]3N)c(F)cc2C(N)=O)cc1C(C)=O` [Example 2-515, 2-((5-acetyl-6-methoxypyridin-3-yl)amino)-6-(((1R,2S)-2-aminocyclohexyl)amino)-5-fluoronicotinamide], the half-maximal inhibitory concentration (IC50) lay within 10 to 50 nM.

In the case of `C[C@H](N)[C@H](Nc1nc(Nc2cncc3c2cnn3CC(F)F)c(C(N)=O)cc1F)C1CC1` [Example 2-398, 6-(((1R,2S)-2-amino-1-cyclopropylpropyl)amino)-2-((1-(2,2-difluoroethyl)-1H-pyrazolo[3,4-c]pyridin-4-yl)amino)-5-fluoronicotinamide], the IC50 was under 10 nM.

Take `COC[C@@H](Nc1nc(Nc2cnc3c(c2)c(OC)nn3C)c(C(N)=O)cc1F)[C@H](C)N` [Example 2-256, 6-(((2S,3S)-3-amino-1-methoxybutan-2-yl)amino)-5-fluoro-2-((3-methoxy-1-methyl-1H-pyrazolo[3,4-b]pyridin-5-yl)amino)nicotinamide]: the IC50 was in the range of 50 to 100 nM.

On to `COCCOc1ncc(Nc2nc(N[C@H](C3CC3)[C@H](C)N)c(F)cc2C(N)=O)cc1F` [Example 2-115, 6-(((1R,2S)-2-amino-1-cyclopropylpropyl)amino)-5-fluoro-2-((5-fluoro-6-(2-methoxyethoxy)pyridin-3-yl)amino)nicotinamide], for which the IC50 lay within 10 to 50 nM.

Regarding `Cc1ncc(Nc2nc(N[C@H](c3ccc(F)c(F)c3)[C@H](C)N)c(F)cc2C(N)=O)cc1-n1nccn1` [Example 2-552, 6-(((1R,2S)-2-amino-1-(3,4-difluorophenyl)propyl)amino)-5-fluoro-2-((6-methyl-5-(2H-1,2,3-triazol-2-yl)pyridin-3-yl)amino)nicotinamide], the IC50 is under 10 nM.

`CC(C)C[C@@H](Nc1nc(Nc2ccc3c(c2)c(N(C)C)nn3C)c(C(N)=O)cc1F)[C@H](C)N` [Example 2-3, 6-(((2S,3R)-2-amino-5-methylhexan-3-yl)amino)-2-((3-(dimethylamino)-1-methyl-1H-indazol-5-yl)amino)-5-fluoronicotinamide]: the IC50 was under 10 nM.

Turning to `CCC[C@@H](Nc1nc(Nc2cnc(NC)c(F)c2)c(C(N)=O)cc1F)[C@H](C)N` [Example 2-277, 6-(((2S,3R)-2-aminohexan-3-yl)amino)-5-fluoro-2-((5-fluoro-6-(methylamino)pyridin-3-yl)amino)nicotinamide], the IC50 was 10 to 50 nM.

As to `CC(C)C[C@H](CN)Nc1nc(Nc2ccc3c(c2)c(OC(F)F)nn3C)c(C(N)=O)cc1F` [Example 2-541, (R)-6-((1-amino-4-methylpentan-2-yl)amino)-2-((3-(difluoromethoxy)-1-methyl-1H-indazol-5-yl)amino)-5-fluoronicotinamide], the IC50 was under 10 nM.

Regarding `CCn1ncc2c(Nc3nc(N[C@H](c4ccccc4F)[C@H](C)N)c(F)cc3C(N)=O)cccc21` [Example 2-514, 6-(((1R,2S)-2-amino-1-(2-fluorophenyl)propyl)amino)-2-((1-ethyhl-1H-indazol-4-yl)amino)-5-fluoronicotinamide], the IC50 was under 10 nM.

Take `Cc1nn(-c2cncc(Nc3nc(N[C@H](C4CC4)[C@H](C)N)c(F)cc3C(N)=O)c2)nc1C` [Example 2-534, 6-(((1R,2S)-2-amino-1-cyclopropylpropyl)amino)-2-((5-(4,5-dimethyl-2H-1,2,3-triazol-2-yl)pyridin-3-yl)amino)-5-fluoronicotinamide]: the IC50 is 50 to 100 nM.

As to `COCCn1ncc2c(Nc3nc(N[C@@H](CN)CC(C)C)c(F)cc3C(N)=O)cncc21` [Example 2-386, (R)-6-((1-amino-4-methylpentan-2-yl)amino)-5-fluoro-2-((1-(2-methoxyethyl)-1H-pyrazolo[3,4-c]pyridin-4-yl)amino)nicotinamide], the IC50 is under 10 nM.

With `CC[C@@H](Nc1nc(Nc2ccc3c(c2)c(N2CCCC2)nn3C)c(C(N)=O)cc1F)[C@H](C)N` [Example 2-429, 6-(((2S,3R)-2-aminopentan-3-yl)amino)-5-fluoro-2-((1-methyl-3-(pyrrolidin-1-yl)-1H-indazol-5-yl)amino)nicotinamide], the IC50 is under 10 nM.

`COCCNc1nn(CCOC)c2ccc(Nc3nc(N[C@@H]4CCCC[C@@H]4N)c(F)cc3C(N)=O)cc12` [Example 2-535, 6-(((1R,2S)-2-aminocyclohexyl)amino)-5-fluoro-2-((1-(2-methoxyethyl)-3-((2-methoxyethyl)amino)-1H-indazol-5-yl)amino)nicotinamide]: the IC50 lay in the range of 10 to 50 nM.

In the case of `C[C@H](N)[C@@H](CC1CC1)Nc1nc(Nc2cc(F)c3c(c2)c(N(C)C)nn3C)c(C(N)=O)cc1F` [Example 2-191, 6-(((2R,3S)-3-amino-1-cyclopropylbutan-2-yl)amino)-2-((3-(dimethylamino)-7-fluoro-1-methyl-1H-indazol-5-yl)amino)-5-fluoronicotinamide], the IC50 fell in the range of 10 to 50 nM.

For `COc1cc(Nc2nc(N[C@H](CCSC)[C@H](C)N)c(F)cc2C(N)=O)cc(OC)c1` [Example 2-345, 6-(((3R,4S)-4-amino-1-(methylthio)pentan-3-yl)amino)-2-((3,5-dimethoxyphenyl)amino)-5-fluoronicotinamide], the IC50 is 10 to 50 nM.

Consider `CC[C@@H](Nc1nc(Nc2cnc(OC)c(F)c2)c(C(N)=O)cc1F)[C@H](C)N` [Example 2-64, 6-(((2S,3R)-2-aminopentan-3-yl)amino)-5-fluoro-2-((5-fluoro-6-methoxypyridin-3-yl)amino)nicotinamide], for which the IC50 lay in the range of 10 to 50 nM.

Source of the values: patent publication US9051310B2, “Nicotinamide derivative or salt thereof” (FUJIFILM Corporation, priority 2011, dated 2015).
